# Measurements as given in the supplement of paper PMC10733146.
# Columns and labels:
# Assay in all cases: viability relative to DMSO control (fraction); higher = less drug effect (more viable cells)
# Conditions in all cases: 48 h
# [1] = tested on: primary AML patient cells (S021)
# Procedure, shortened: (§1)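 Cells were incubated for 48 h at 37 °C and 5% CO2 in RPMI-1640 with penicillin/streptomycin, L-glutamine and human serum, at 4 × 10^4 cells per well in 384-well plates with compounds pre-plated at five concentrations, one well each. These were primary mononuclear tumour cells, fresh or cryopreserved, Ficoll-isolated from blood or bone marrow or obtained from processed lymph node. Viability values are CellTiter-Glo luminescence relative to the median of 16 inner DMSO wells.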
# [2] = tested on: primary B-PLL patient cells (S016)
# Procedure, shortened: as §1
# [3] = tested on: primary AML patient cells (S071)
# Procedure, shortened: as §1
# [4] = tested on: primary AML patient cells (S060)
# Procedure, shortened: as §1
# [5] = tested on: primary DLBCL patient cells (S049)
# Procedure, shortened: as §1
# [6] = tested on: primary ALL patient cells (S088)
# Procedure, shortened: as §1
# [7] = tested on: primary AML patient cells (S085)
# Procedure, shortened: as §1
# [8] = tested on: primary AML patient cells (S019)
# Procedure, shortened: as §1
# [9] = tested on: primary DLBCL patient cells (S076)
# Procedure, shortened: as §1
# [10] = tested on: primary T-NHL patient cells (S058)
# Procedure, shortened: as §1
# [11] = tested on: primary AML patient cells (S017)
# Procedure, shortened: as §1
# [12] = tested on: primary AML patient cells (S002)
# Procedure, shortened: as §1
# [13] = tested on: primary AML patient cells (S011)
# Procedure, shortened: as §1
# [14] = tested on: primary CLL patient cells (S043)
# Procedure, shortened: as §1
# [15] = tested on: primary AML patient cells (S081)
# Procedure, shortened: as §1
# [16] = tested on: primary AML patient cells (S025)
# Procedure, shortened: as §1
# [17] = tested on: primary BL patient cells (S005)
# Procedure, shortened: as §1
structure (smiles),measurement,setting,value
Oc1ccc(/C=C/c2cc(O)cc(O)c2)cc1 [Resveratrol],viability,[1]; 0.024 µM,0.84
same,viability,[1]; 0.12 µM,0.845
same,viability,[1]; 0.6 µM,0.772
same,viability,[1]; 3 µM,0.693
same,viability,[1]; 15 µM,0.55
same,viability,[2]; 0.024 µM,0.852
same,viability,[2]; 0.12 µM,0.85
same,viability,[2]; 0.6 µM,0.864
same,viability,[2]; 3 µM,0.907
same,viability,[2]; 15 µM,0.787
same,viability,[3]; 0.024 µM,0.774
same,viability,[3]; 0.12 µM,0.734
same,viability,[3]; 0.6 µM,0.732
same,viability,[3]; 3 µM,0.688
same,viability,[3]; 15 µM,0.591
same,viability,[4]; 0.024 µM,0.964
same,viability,[4]; 0.12 µM,0.99
same,viability,[4]; 0.6 µM,0.946
same,viability,[4]; 3 µM,0.918
same,viability,[4]; 15 µM,0.893
same,viability,[5]; 0.024 µM,0.849
same,viability,[5]; 0.12 µM,0.846
same,viability,[5]; 0.6 µM,0.826
same,viability,[5]; 3 µM,0.732
same,viability,[5]; 15 µM,0.711
same,viability,[6]; 0.024 µM,0.427
same,viability,[6]; 0.12 µM,0.459
same,viability,[6]; 0.6 µM,0.489
same,viability,[6]; 3 µM,0.477
same,viability,[6]; 15 µM,0.426
same,viability,[7]; 0.024 µM,0.783
same,viability,[7]; 0.12 µM,0.735
same,viability,[7]; 0.6 µM,0.819
same,viability,[7]; 3 µM,0.735
same,viability,[7]; 15 µM,0.658
same,viability,[8]; 0.024 µM,0.879
same,viability,[8]; 0.12 µM,0.928
same,viability,[8]; 0.6 µM,1
same,viability,[8]; 3 µM,0.918
same,viability,[8]; 15 µM,0.924
same,viability,[9]; 0.024 µM,0.961
same,viability,[9]; 0.12 µM,0.963
same,viability,[9]; 0.6 µM,0.955
same,viability,[9]; 3 µM,0.94
same,viability,[9]; 15 µM,0.882
same,viability,[10]; 0.024 µM,0.917
same,viability,[10]; 0.12 µM,0.998
same,viability,[10]; 0.6 µM,0.957
same,viability,[10]; 3 µM,0.895
same,viability,[10]; 15 µM,0.948
same,viability,[11]; 0.024 µM,0.89
same,viability,[11]; 0.12 µM,0.933
same,viability,[11]; 0.6 µM,0.92
same,viability,[11]; 3 µM,0.883
same,viability,[11]; 15 µM,0.902
same,viability,[12]; 0.024 µM,0.873
same,viability,[12]; 0.12 µM,0.932
same,viability,[12]; 0.6 µM,0.894
same,viability,[12]; 3 µM,0.796
same,viability,[12]; 15 µM,0.604
same,viability,[13]; 0.024 µM,0.808
same,viability,[13]; 0.12 µM,0.789
same,viability,[13]; 0.6 µM,0.757
same,viability,[13]; 3 µM,0.747
same,viability,[13]; 15 µM,0.682
same,viability,[14]; 0.024 µM,0.825
same,viability,[14]; 0.12 µM,0.864
same,viability,[14]; 0.6 µM,0.821
same,viability,[14]; 3 µM,0.799
same,viability,[14]; 15 µM,0.711
same,viability,[15]; 0.024 µM,0.814
same,viability,[15]; 0.12 µM,0.846
same,viability,[15]; 0.6 µM,0.806
same,viability,[15]; 3 µM,0.762
same,viability,[15]; 15 µM,0.794
same,viability,[16]; 0.024 µM,0.933
same,viability,[16]; 0.12 µM,0.921
same,viability,[16]; 0.6 µM,0.883
same,viability,[16]; 3 µM,0.891
same,viability,[16]; 15 µM,0.758
same,viability,[17]; 0.024 µM,0.942
same,viability,[17]; 0.12 µM,0.954
same,viability,[17]; 0.6 µM,0.921
same,viability,[17]; 3 µM,0.9
same,viability,[17]; 15 µM,0.828
